# Assay results: the supplement of paper PMC10307832
# Tests used:
# Assay in all cases: relative viability (nuclei count vs DMSO), 5 days (fraction); higher = more cells survive
# [1] = test system: LCLC-103H
# Outline: (§1)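 Cells from lung cancer lines were seeded into 1536-well plates and, one day later, dosed by pin tool. Treatments were either a single drug or a fixed dose of an anchor drug with five library-drug doses (not always all listed) in √10 steps. After 5 days, nuclei were stained in a one-step fixation (final 0.05% Triton X-100, 1% formaldehyde, 1 ug/ml Hoechst) and counted on 4× images, and relative viability is the treated-to-vehicle nuclei ratio, as the median of duplicate plates.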
# [2] = test system: LXF-289
# Outline: as §1
# [3] = test system: NCI-H1355
# Outline: as §1
# [4] = test system: NCI-H1563
# Outline: as §1
# [5] = test system: NCI-H1651
# Outline: as §1
# [6] = test system: NCI-H1755
# Outline: as §1
# [7] = test system: NCI-H1792
# Outline: as §1
# [8] = test system: NCI-H1915
# Outline: as §1
# [9] = test system: NCI-H2170
# Outline: as §1
# [10] = test system: NCI-H2347
# Outline: as §1
# [11] = test system: NCI-H3122
# Outline: as §1
# [12] = test system: NCI-H322M
# Outline: as §1
structure (smiles),measurement,setting,value
NC(=O)Nc1cc(-c2cccc(F)c2)sc1C(=O)N[C@H]1CCCNC1 [AZD7762] + Cc1nc(Nc2ncc(C(=O)Nc3c(C)cccc3Cl)s2)cc(N2CCN(CCO)CC2)n1 [Dasatinib] (partner 0.075 µM),relative viability,[1]; first compound 0.01 µM,0.555
same,relative viability,[1]; first compound 0.03162 µM,0.463
same,relative viability,[1]; first compound 0.1 µM,0.422
same,relative viability,[1]; first compound 0.3162 µM,0.515
same,relative viability,[1]; first compound 1 µM,0.284
same,relative viability,[2]; first compound 0.01 µM,0.225
same,relative viability,[2]; first compound 0.03162 µM,0.245
same,relative viability,[2]; first compound 0.1 µM,0.219
same,relative viability,[2]; first compound 0.3162 µM,0.187
same,relative viability,[2]; first compound 1 µM,0.211
same,relative viability,[3]; first compound 0.01 µM,0.668
same,relative viability,[3]; first compound 0.03162 µM,0.849
same,relative viability,[3]; first compound 0.1 µM,0.739
same,relative viability,[3]; first compound 0.3162 µM,0.681
same,relative viability,[3]; first compound 1 µM,0.506
same,relative viability,[4]; first compound 0.01 µM,0.451
same,relative viability,[4]; first compound 0.03162 µM,0.492
same,relative viability,[4]; first compound 0.1 µM,0.5
same,relative viability,[4]; first compound 0.3162 µM,0.524
same,relative viability,[4]; first compound 1 µM,0.419
same,relative viability,[5]; first compound 0.01 µM,0.375
same,relative viability,[5]; first compound 0.03162 µM,0.358
same,relative viability,[5]; first compound 0.1 µM,0.386
same,relative viability,[5]; first compound 0.3162 µM,0.22
same,relative viability,[5]; first compound 1 µM,0.174
same,relative viability,[6]; first compound 0.01 µM,0.276
same,relative viability,[6]; first compound 0.03162 µM,0.428
same,relative viability,[6]; first compound 0.1 µM,0.416
same,relative viability,[6]; first compound 0.3162 µM,0.325
same,relative viability,[6]; first compound 1 µM,0.215
same,relative viability,[7]; first compound 0.01 µM,0.814
same,relative viability,[7]; first compound 0.03162 µM,0.861
same,relative viability,[7]; first compound 0.1 µM,0.753
same,relative viability,[7]; first compound 0.3162 µM,0.891
same,relative viability,[7]; first compound 1 µM,0.873
same,relative viability,[8]; first compound 0.01 µM,0.32
same,relative viability,[8]; first compound 0.03162 µM,0.319
same,relative viability,[8]; first compound 0.1 µM,0.327
same,relative viability,[8]; first compound 0.3162 µM,0.335
same,relative viability,[8]; first compound 1 µM,0.272
same,relative viability,[9]; first compound 0.01 µM,0.602
same,relative viability,[9]; first compound 0.03162 µM,0.584
same,relative viability,[9]; first compound 0.1 µM,0.507
same,relative viability,[9]; first compound 0.3162 µM,0.529
same,relative viability,[9]; first compound 1 µM,0.401
same,relative viability,[10]; first compound 0.01 µM,0.36
same,relative viability,[10]; first compound 0.03162 µM,0.306
same,relative viability,[10]; first compound 0.1 µM,0.346
same,relative viability,[10]; first compound 0.3162 µM,0.35
same,relative viability,[10]; first compound 1 µM,0.253
same,relative viability,[11]; first compound 0.01 µM,0.893
same,relative viability,[11]; first compound 0.03162 µM,0.739
same,relative viability,[11]; first compound 0.1 µM,0.823
same,relative viability,[11]; first compound 0.3162 µM,0.544
same,relative viability,[11]; first compound 1 µM,0.625
same,relative viability,[12]; first compound 0.01 µM,0.258
same,relative viability,[12]; first compound 0.03162 µM,0.237
